One series in a line: Solubility in water. The class given is physicochemical. The conditions noted are these: 24 °C, room temperature (22-26° C.).
Series [1] in a line: Viscosity test: temperature-induced rise in viscosity. The class given is physicochemical. The conditions noted are these: 15% poloxamer 407 gel with 2% API vs without. The method, then: The viscosity normally is measured with a viscometer, in particular a rheometer. A rheometer usually is a laboratory device measuring flow characteristics of a liquid, suspension or slurry in response to applied forces. A common device type is a so called shear rheometer, in which a shear stress is applied to the corresponding material. Devices which can be used to measure the viscosity of the aqueous gel compositions according to the invention are rheometers from Brookfield (AMETEK Brookfield). […]
Note: Maximal Viscosity is Identical for all Formulations (Due to the Test Method)

Series [2] can be described thus: Pharmacokinetic study after unilateral transtympanic administration (plasma, inner ear, perilymph, brain). The conditions noted are these: rat; for concentration at 14 days: 14 days after administration; for ACOU085 plasma concentration / ACOU085 brain concentration: 6% thermo-reversible formulation 1.2 mg/animal unilateral transtympanic. The class given is in vivo, female Sprague Dawley rats. The method, then:
Eighteen female Sprague Dawley rats entered a pharmacokinetic study, to determine the distribution of a 6% thermo-reversible ACOU085 formulation at a dose of 1.2 mg/animal after unilateral transtympanic administration in peripheral plasma, inner ear, perilymph, brain and CSF.
4, 24, 48, 96, 168 and 336 h after dosing n=3 rats out of every group were euthanized with carbon dioxide, peripheral and final blood samples and brain were taken and inner ears were dissected to analyze ACOU085 concentrations. Body weight was assessed on the day 1-4, on day 7 and day 14. Animals were checked for any clinical signs associated with toxicity of the test substance.

Where [3] appears, read: 6% thermo-reversible formulation 1.2 mg/animal transtympanic.

Where “and” joins values, the source holds several entries; their conditions need not be identical. Identical values can stand only once. Like-named read-outs stand apart in the source and are kept apart here.

Regarding `O=C(NCc1cccc(S(F)(F)(F)(F)F)c1)[C@H]1C[C@@H]2CC[C@H]1C2` (racemic) [Compound A, (1SR,2SR,4RS)—N-(3-(pentafluoro-λ6-sulfanyl)benzyl) bicyclo[2.2.1]heptane-2-carboxamide], in the series “Solubility in water”, the solubility is < 1000 µg/mL.

Regarding `O=C(NCc1cccc(S(F)(F)(F)(F)F)c1)[C@H]1C[C@@H]2CC[C@H]1C2` [ACOU085, (1S,2S,4R)—N-(3-(pentafluorosulfanyl)benzyl) bicyclo[2.2.1]heptane-2-carboxamide], in series [1], the “effect of API on the viscosity-temperature relation of the formulation” value is listed as “no effect”. In addition, the concentration at 336 h in series [2] (female, Sprague Dawley, other: transtympanic, perilymph, 6% formulation 1.2 mg/animal unilateral transtympanic, Left side, 336 h, animals 1-3, read-out: Uptake of ACOU085 into the perilymph: ACOU085 inner ear concentration) turned out to be 4 nM. Moreover, the concentration at 14 days was 8 nM in series [2] (female, Sprague Dawley, brain, other: transtympanic, 1.2 mg/animal, read-out: brain concentration (average)) and 4 nM in series [2] (female, Sprague Dawley, plasma, other: transtympanic, 1.2 mg/animal, read-out: plasma concentration (average)). The concentration at 4 h in series [2] (female, Sprague Dawley, inner ear, left side, other: transtympanic, 1.2 mg/animal, 6% formulation 1.2 mg/animal unilateral transtympanic, Left side, 4 h, animals 1-3, read-out: ACOU085 inner ear concentration) was found to be 55 nM. For the same molecule, the concentration at 7 days in series [2] (female, Sprague Dawley, plasma, other: transtympanic, 1.2 mg/animal, after 7 days) was found to be 26 nM. Besides, the “ACOU085 inner ear concentration” value in series [2] (6% formulation 1.2 mg/animal unilateral transtympanic, Left side, 4 h, animals 1-3) is 82 nmol/L and 93 nmol/L. For the same molecule, in series [2] (setting [3]), the “maximal average concentration in brain” value came to 82 nmol/L. The “maximal average concentration in plasma” value in series [2] (setting [3]) was determined as 45 nmol/L. Also, the ACOU085 plasma concentration in series [2] (4 h (printed 4 11), animals 1-3) was 9 nnmol/L and 6 nnmol/L and 12 nnmol/L; in series [2] (48 h, animals 1-3), 12 nnmol/L and 18 nnmol/L and 16 nnmol/L; in series [2] (96 h, animals 1-3), 48 nnmol/L and 26 nnmol/L and 33 nnmol/L. For the same molecule, the ACOU085 brain concentration in series [2] (48 h, animals 1-3) was 38 nnmol/L and 53 nnmol/L and 76 nnmol/L; in series [2] (96 h, animals 1-3), 94 nnmol/L and 52 nnmol/L and 68 nnmol/L. The “time of peak brain concentration” value in series [2] (after injection) is recorded as 96 h. For the same molecule, in series [2] (compared with inner ear tissue and perilymph), the “uptake into the brain and into the plasma” value is “low in comparison to the inner ear tissue and perilymph”. The “Uptake of ACOU085 into the perilymph: ACOU085 inner ear concentration” value in series [2] (perilymph, 6% formulation 1.2 mg/animal unilateral transtympanic, Left side, 336 h, animals 1-3) was 3 nmol/L and 2 nmol/L. Also, in the series “Solubility in water”, the solubility was < 1000 µg/mL.

The solubility is how much of the substance goes into solution per volume. Low values mean little dissolved substance, high ones much dissolved substance.

Values taken from US20260083669A1, “AQUEOUS GEL COMPOSITION” (Acousia Therapeutics GmbH, priority 2022, published 2026).
